Test results reported in patent US11207379B2, “Peptides with anti-cancer activity” (IDP DISCOVERY PHARMA, S.L., priority 2016, dated 2021).
Numbered stars: 1 amine (or outer) side, 2 acyl side, 3 side chain; on linkers, the order of the positions; unused ones are H or OH. Peptide text beside a SMILES is read from it. Suc = O=C(CCC(=O)[*:2])[*:1]

Columns and labels:
Type in all cases: cell-based
[1] = target: MM.1S, B Lymphoblast (multiple myeloma); assay: Viability assay (MTT, Alamar Blue, hexosaminidase), 72 h; details: MM.1S cells, read-out: EC50
Experimental: MM.1S, B Lymphoblast (multiple myeloma), ATCC: CRL-2974
(§1) Cell lines A549, MCF-7 and RAMOS were cultured in incubator under CO2 (6%) at 37° C. in DMEM high glucose (Dulbecco's Modified Eagle Solution, Gibco-BRL 31966-21) medium with 10% fetal bovine serum inactivated (FBS) (Gibco-BRL 10106-169). Cell lines HL-60 and MM.1S were cultured in incubator at 37° C. in RPMI-1640 (Sigma R8758) medium with 10% of fetal bovine serum inactivated (FBS) and 2 mM glutamine (Sigma G7513). Cell lines BJ were cultured in incubator under CO2 (6%) at 37° C. in Eagle's Minimum Essential Medium (Sigma, M-2279) with 10% fetal bovine serum inactivated (FBS) (Gibco-BRL 10106-169).
(§2) During the amplification step and the assays adherent cells were rinsed with DPBS (Dulbecco's Phosphate Buffered Saline, Sigma D1283) three times and afterward treated for 5 minutes with trypsin ([…]) (Gibco-BRL, 15400054) in solution of DPBS at 37° C., and, once detached, transferred in the culturing medium. No-adherent cells were centrifuged and transferred in the culturing medium. Cells were counted in a Neubauer chamber after labelling with Tripan-Blue.
(§3) A549, MCF-7 and JB cells were seeded at a density of 5000 cells/well and HL-60, MM.1S and Ramos at 10000 cells/well in 100 μl of medium in 96 well plates. After 24 h, the compounds to be tested were added to calculate the dose/response curve at the starting concentration of 100 μM with serial dilutions (1:1). Controls are the untreated cells. Each experiment was performed in triplicate.
(§4) Cells were incubated during 72 h in incubator under CO2 atmosphere at 37° C. Cell viability was measured by means of MTT (3-(4,5-dimethylthiazol-2-yl)-2.5-diphenyltetrazolium bromide) assay, Alamar Blue® (Biosource DAL1100) and Hexosaminidase activity test, consecutively, following manufacturer instructions.
(§5) MTT: 1. Stock solution of MTT (475989 Calbiochem) was 5 mg/ml in PBS 1×. As negative control (experiment noise) 3 wells were treated with 20 μl/well of a solution of SDS 10% in H2O. The same control was used for Alamar Blue/Hexosaminidase. 10 μl/well of MTT solution were added and the plate was incubated for 3-4 hr. The medium was discarded and 100 μl of extracting buffer (PBS 1×, 15% SDS, 50% […] N,N-Dimethylformamide, pH 4.7) were added to each well. Plates were incubated for 16 h at room temperature under orbital shaking. Absorbance at 570 nm was finally measured.
(§6) Alamar Blue: 10 μl Alamar Blue solution was added to each well and the plates were incubated for […] in the incubator. Fluorescence ratio at 535/590 (excitation/emission) was measured in Cytofluor (Millipore) fluorimeter. Blank control was determined by lysis of untreated cells with con 2% of Triton X100, right before adding Alamar Blue solution.
(§7) Hexosaminidase activity test: after Alamar Blue lecture, medium was discarded and plates were rinsed once with PBS. 60 μl hexosaminidase substrate (p-nitrophenol-N-acetyl-beta-D-glucosamide 7.5 mM [Sigma N-9376], sodium citrate 0.1 M, pH 5.0, 0.25% Triton X-100) was added to each well and the plates were incubated at 37° C. for 2-5 h, according to the cell type (hexosaminidase activity changes according to the cell type). […] Blank control was the same as described before.
(§8) Data analysis was performed calculating the percentage of cell viability normalized vs. the values of negative control, which was considered equal to 100%. The dose/response curve was fitted through the sigmoidal equation dose-response (variable slope) and the EC50 values were calculated as follow: Y=Bottom+(Top−Bottom)/(1+10^{[(Log EC50−X)*HillSlope]},

A549 cells = assay: Annexin V assay by flow cytometry
Experimental: (§9) Miltenyi Biotec Annexin V-FITC Kit was used. To detect apoptosis in early stage Phosphatidylserine in plasmatic membrane localization was measured, though the calcium dependent reaction with Annexine V. Annexin V molecules were labelled with different fluorophores (FITC) and analyzed by FACS. To detect apoptosis in late stage DNA-intercalating agents, such Propidium iodide (PI) were used.
Cells were seeded at a density range of 150000-30000 cells/well in 12 wells plates, and incubated at 37° C. in the incubator under CO2 atmosphere. After 24 h, […] A549, HL-60 and MM.1S, at IC30 and/or IC80, with compounds IDP-S09 and IL-09, in cell lines HL-60 and MM.1S with compound IDP-S04 and in cell line A549 with compounds IDP-S02 and IDP-S03. Staurosporine and compound 100258-F4 (Sigma) were used as positive control and reference compound, respectively.

[2] = target: RAMOS, B lymphocyte (Burkitt's Lymphoma); assay: Viability assay (MTT, Alamar Blue, hexosaminidase), 72 h; details: Ramos cells, read-out: EC50
Experimental: RAMOS, B lymphocyte (Burkitt's Lymphoma), ATCC: CRL-1596
as §1, §2, §3, §4, §5, §6, §7, §8

[3] = target: A549, epithelial (lung cancer); assay: as above; details: A549 cells, read-out: EC50
Experimental: A549, epithelial (lung cancer), ATCC:CCL-185
as §1, §2, §3, §4, §5, §6, §7, §8

[4] = target: MCF-7, epithelial (breast cancer); assay: as above; details: MCF7 cells, read-out: EC50
Experimental: MCF-7, epithelial (breast cancer), ECACC: 86012803
as §1, §2, §3, §4, §5, §6, §7, §8

[5] = target: HL-60, promyeloblast (acute myelocytic leukemia, AML); assay: as above; details: HL-60 cells, read-out: EC50
Experimental: HL-60, promyeloblast (acute myelocytic leukemia, AML), ECACC: 98070106
as §1, §2, §3, §4, §5, §6, §7, §8

HL-60 cells = assay: Annexin V assay by flow cytometry; details: for Percentage of HL-60 gated cells (positive to Annexin V): compound at EC30, control = 100%
Experimental: as §9
(§10) Cells were seeded at a density range of 150000-30000 cells/well in 12 wells plates, and incubated at 37° C. in the incubator under CO2 atmosphere. After 24 h, treatments at 4 h, 8 h, 18 h, 48 h and 72 h were performed in cell lines A549, HL-60 and MM.1S, at IC30 and/or IC80, with compounds IDP-S09 and IL-09, in cell lines HL-60 and MM.1S with compound IDP-S04 and in cell line A549 with compounds IDP-S02 and IDP-S03. Staurosporine and compound 100258-F4 (Sigma) were used as positive control and reference compound, respectively.

MM.1S cells = assay: Annexin V assay by flow cytometry
Experimental: as §9, §10

[6] = system: JB healthy cells (BJ, fibroblast, normal skin); assay: Viability assay (MTT, Alamar Blue, hexosaminidase), 72 h
Experimental: BJ, fibroblast (normal skin), ATCC® CRL-2522™
as §1
During the amplification step and the assays adherent cells were rinsed with DPBS (Dulbecco's Phosphate Buffered Saline, Sigma D1283) three times and afterward treated for 5 minutes with trypsin ([…]) (Gibco-BRL, 15400054) in solution of DPBS at 37° C., and, once detached, transferred in the culturing medium. […] Cells were counted in a Neubauer chamber after labelling with Tripan-Blue. […]
Cells were incubated during 72 h in incubator under CO2 atmosphere at 37° C. Cell viability was measured by means of MTT (3-(4,5-dimethylthiazol-2-yl)-2.5-diphenyltetrazolium bromide) assay, Alamar Blue® (Biosource DAL1100) and Hexosaminidase activity test, consecutively, following manufacturer instructions. […]

[7] = 4 h, compound at EC30, control = 100%
[8] = 4 h, compound at EC80, control = 100%

**Q.** How did the EC50 [1] turn out when `CC[C@H](C)[C@H](NC(=O)[C@H](Cc1ccc(O)cc1)NC(=O)[C@H](C)NC(=O)[C@H](CC(C)C)NC(=O)[C@H](C)NC(=O)[C@H](CCCCN)NC(=O)[C@H](CCCCN)NC(=O)[C@H](Cc1ccccc1)NC(=O)[C@@H](NC(=O)[C@@H](NC(=O)[C@@H](NC(=O)[C@H](CCCCN)NC(=O)[C@@H]1CCCN1C(=O)[C@H](C)NC(=O)[C@H](CCCNC(=N)N)NC(=O)[C@H](CCCNC(=N)N)NC(=O)[C@H](CCCNC(=N)N)NC(=O)[C@H](CCCNC(=N)N)NC(=O)[C@H](CCCNC(=N)N)NC(=O)[C@H](CCCNC(=N)N)NC(=O)[C@H](CCCNC(=N)N)NC(=O)CCC(=O)O)[C@@H](C)CC)C(C)C)[C@@H](C)CC)C(N)=O` [IDP-L09] (Suc-RRRRRRRAPKIVIFKKALAYI-NH2) was run?
**A.** 25 ± 1 µM

**Q.** And the “Percentage of A549 gated cells (positive to Annexin V)” value (“Percentage of A549 gated cells” for short) (A549 cells; [7])?
**A.** 900%

**Q.** What about the “Percentage of A549 gated cells” value (A549 cells; [8]) of the same compound?
**A.** 2400%

**Q.** And the “Percentage of A549 gated cells” value (A549 cells; 16 h, compound at EC30, control = 100%)?
**A.** 400%

**Q.** And the “Percentage of A549 gated cells” value (A549 cells; 16 h, compound at EC80, control = 100%)?
**A.** 950%

**Q.** And the “apoptosis induction (Annexin V by FACS), in words” value (from here on “apoptosis induction”) (A549 cells; A549 cells)?
**A.** fast induction (4 h) is observed

**Q.** What about the EC50 [2] of the same compound?
**A.** 28 ± 1 µM

**Q.** And the EC50 [3]?
**A.** 48 ± 5 µM

**Q.** And the EC50 [4]?
**A.** ~28 µM

**Q.** And the EC50 [5]?
**A.** 46 ± 6 µM

**Q.** And the “Percentage of HL-60 gated cells (positive to Annexin V)” value (HL-60 cells; 48 h)?
**A.** 590%

**Q.** And the “Percentage of HL-60 gated cells (positive to Annexin V)” value (HL-60 cells; 72 h)?
**A.** 230%

**Q.** And the “apoptosis induction” value (HL-60 cells; HL-60 cells)?
**A.** apoptosis induction is significant after 48 h and 72 h at low concentrations (IC30)

**Q.** What about the “Percentage of MM.1S gated cells (positive to Annexin V)” value (“Percentage of MM.1S gated cells” below) (MM.1S cells; [7]) of the same compound?
**A.** 50%

**Q.** What about the “Percentage of MM.1S gated cells” value (MM.1S cells; [8]) of the same compound?
**A.** 50%

**Q.** And the “Percentage of MM.1S gated cells” value (MM.1S cells; 8 h, compound at EC30, control = 100%)?
**A.** 220%

**Q.** And the “Percentage of MM.1S gated cells” value (MM.1S cells; 8 h, compound at EC80, control = 100%)?
**A.** 310%

**Q.** What about the “Percentage of MM.1S gated cells” value (MM.1S cells; 48 h, compound at EC30, control = 100%) of the same compound?
**A.** 190%

**Q.** And the “Percentage of MM.1S gated cells” value (MM.1S cells; 72 h, compound at EC30, control = 100%)?
**A.** 500%

**Q.** What about the “apoptosis induction” value (MM.1S cells; MM.1S cells) of the same compound?
**A.** induces apoptosis at 8 h, 48 h and 72 h at low concentration (IC30) and at 8 h at high concentration (IC80)

**Q.** And the EC50 [6]?
**A.** > 100 µM
